Here are results for one compound from US9895367B2, “Formulation comprising phenylaminopyrimidine derivative as active agent” (NATCO PHARMA LIMITED, priority 2011, dated 2018).

Data set [1] relates to CAL-27 (Tongue squamous cell carcinoma) cell line. Briefly: MTT assay on CAL-27 cell line. The class given is cell-based. The note with it: Homo sapiens, CAL-27, 1.75×10^4 cells/mL, 72 hours.
Another data set relates to rats. Briefly: Toxicological study, maximum tolerated oral dose in rats. The data set is classed as in vivo.
Data set [2] is described as follows: Solubility of NRC-AN-019 drug substance. The data set is classed as physicochemical. From the text:
NRC-AN-019 is a pale yellow to light brown coloured crystalline to amorphous powder. Its molecular formula is C25H17F6N5O and its relative molecular mass is 517.44. […] The drug substance is soluble in dimethyl formamide and dimethyl sulfoxide.

For data set [3], the system named is PC3M (Prostate Cancer) Cell lines. Briefly: MTT assay on PC3M cell lines. The data set is classed as cell-based. The note with it: Homo sapiens, PC-3M, 0.312×10^5 cells/mL, 72 hours.
Data set [4] in a line: Bioavailability study in rats (oral, LCMS of blood). The note with it: wistar albino male rats, fasted overnight, average. The class given is in vivo. The text has this:
Four rats (wistar albino, male, weighing 120-180 grams) were divided into two sets of study (two rats in each set) and fasted overnight prior to dosing, but were permitted water ad libitum. The sample preparation and subsequent dilution was made as per protocol with a vehicle, followed by the administration of the sample through oral route. Blood samples were collected by puncturing retero-orbital sinus of the anaesthetized rats (with anesthetic ether) at definite intervals of 15, 30, 60, 120, 240, 360, 480 and 720 minutes post administration. The blood collection was done in prefilled heparin centrifugation tubes.
The blood samples collected were subjected for the subsequent centrifugation and followed by analytical procedure with the use of LCMS technique. The areas under the blood drug concentration versus time curves are calculated by the trapezoidal rule. The analysis was done with respect to AUC (area under curve), Cmax (maximum concentration) and Tmax (time of maximum concentration).

The structures appear in SMILES notation. pIC50: −log10 of the molar value.

For the compound `Cc1ccc(NC(=O)c2cc(C(F)(F)F)cc(C(F)(F)F)c2)cc1Nc1nccc(-c2cccnc2)n1` [NRC-AN-019, (3,5-bis-trifluoromethyl)-N-[4-methyl-3-(4-pyridin-3-yl-pyrimidin-2-ylamino)-pheny-1]-benzamide], the pIC50 in data set [1] is 5.84; in data set [3], 5.36. In the data set on rats, the “maximum tolerated oral dose” value is more than 5000 mg/kg bodyweight. The “solubility in aqueous buffer of pH 1.2” value in data set [2] (aqueous buffer pH 1.2) was “very slightly soluble”. In addition, in data set [2] (dimethyl formamide), the “solubility in dimethyl formamide” value is reported as “soluble”. In data set [2] (dimethyl sulfoxide), the “solubility in dimethyl sulfoxide” value is reported as “soluble”. Moreover, the “solubility in neutral/alkaline aqueous buffers” value in data set [2] (neutral/alkaline aqueous buffers) is “insoluble”. Further, the solubility in water entry in data set [2] (water) is recorded as “practically insoluble”. This compound yielded a Cmax in data set [4] (rat) of 0.0352 µg/mL. For the same compound, in data set [4] (rat), the Tmax came to 8.7 h. This compound also yielded an area under the curve (AUC) in data set [4] (trapezoidal rule) of 0.43 µg·h/mL.
